25 molecules from US12441703B2, “Carboxamides as modulators of sodium channels” (VERTEX PHARMACEUTICALS INCORPORATED, priority 2019, dated 2025) can be followed below.

Chain of human NaV 1.8 (Q9Y5Y9 whole entry, looked up, the tested form may be a part): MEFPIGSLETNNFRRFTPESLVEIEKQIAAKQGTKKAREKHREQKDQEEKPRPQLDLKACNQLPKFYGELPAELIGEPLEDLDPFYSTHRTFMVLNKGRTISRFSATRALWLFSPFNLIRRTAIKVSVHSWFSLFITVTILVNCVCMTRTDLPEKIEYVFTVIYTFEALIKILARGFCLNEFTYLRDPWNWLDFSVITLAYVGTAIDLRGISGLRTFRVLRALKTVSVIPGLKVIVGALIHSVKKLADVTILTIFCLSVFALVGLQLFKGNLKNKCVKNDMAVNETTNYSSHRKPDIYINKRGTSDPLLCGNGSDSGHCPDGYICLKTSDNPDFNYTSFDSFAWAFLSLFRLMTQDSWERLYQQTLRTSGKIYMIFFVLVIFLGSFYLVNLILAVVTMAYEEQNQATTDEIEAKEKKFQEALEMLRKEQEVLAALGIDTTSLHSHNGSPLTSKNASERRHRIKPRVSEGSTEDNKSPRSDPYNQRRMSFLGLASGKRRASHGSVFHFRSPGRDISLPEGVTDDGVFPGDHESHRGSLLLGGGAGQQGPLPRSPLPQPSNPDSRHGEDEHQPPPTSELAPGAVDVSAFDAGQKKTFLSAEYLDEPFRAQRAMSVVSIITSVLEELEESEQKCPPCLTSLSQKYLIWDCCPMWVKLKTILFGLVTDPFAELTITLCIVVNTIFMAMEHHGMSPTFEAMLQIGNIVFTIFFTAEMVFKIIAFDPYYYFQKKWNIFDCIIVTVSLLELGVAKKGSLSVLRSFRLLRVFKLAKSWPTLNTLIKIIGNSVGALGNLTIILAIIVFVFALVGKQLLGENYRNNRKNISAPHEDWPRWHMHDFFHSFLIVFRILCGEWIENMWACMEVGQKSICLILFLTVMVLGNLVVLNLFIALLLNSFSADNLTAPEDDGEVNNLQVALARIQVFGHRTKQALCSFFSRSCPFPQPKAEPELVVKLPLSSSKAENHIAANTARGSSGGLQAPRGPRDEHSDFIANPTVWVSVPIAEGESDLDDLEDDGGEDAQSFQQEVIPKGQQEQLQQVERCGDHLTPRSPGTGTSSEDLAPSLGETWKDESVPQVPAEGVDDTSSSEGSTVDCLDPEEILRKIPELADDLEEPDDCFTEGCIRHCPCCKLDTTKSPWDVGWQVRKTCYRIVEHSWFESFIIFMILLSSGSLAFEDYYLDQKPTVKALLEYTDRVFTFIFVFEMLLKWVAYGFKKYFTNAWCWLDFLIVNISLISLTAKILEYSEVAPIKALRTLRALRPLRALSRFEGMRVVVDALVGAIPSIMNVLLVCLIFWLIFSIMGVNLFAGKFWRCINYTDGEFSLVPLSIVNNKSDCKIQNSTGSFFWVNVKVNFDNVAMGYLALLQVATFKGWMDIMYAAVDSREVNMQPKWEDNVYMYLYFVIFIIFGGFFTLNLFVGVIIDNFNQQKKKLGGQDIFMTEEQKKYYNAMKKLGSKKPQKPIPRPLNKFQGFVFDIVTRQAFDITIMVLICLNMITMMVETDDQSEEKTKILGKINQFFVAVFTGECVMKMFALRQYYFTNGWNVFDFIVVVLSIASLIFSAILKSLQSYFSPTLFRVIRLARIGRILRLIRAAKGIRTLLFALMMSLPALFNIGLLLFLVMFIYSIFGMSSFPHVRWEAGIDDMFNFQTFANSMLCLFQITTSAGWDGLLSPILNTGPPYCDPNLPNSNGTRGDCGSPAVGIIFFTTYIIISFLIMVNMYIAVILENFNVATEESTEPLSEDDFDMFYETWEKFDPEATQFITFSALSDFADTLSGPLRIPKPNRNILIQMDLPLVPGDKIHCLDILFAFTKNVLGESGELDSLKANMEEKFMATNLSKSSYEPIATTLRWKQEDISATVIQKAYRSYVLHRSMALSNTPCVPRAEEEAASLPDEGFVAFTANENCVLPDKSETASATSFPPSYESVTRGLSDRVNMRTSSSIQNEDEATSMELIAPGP

This experiment deals with human NaV 1.8 (Homo sapiens, UniProt Q9Y5Y9). In words: E-VIPR assay for detecting and measuring NaV inhibition properties. The experiment is classed as cell-based. The conditions noted are these: E-VIPR assay conducted in the presence of human serum; HEK cells expressing truncated human NaV 1.8; read-out: IC50. The text has this:
Sodium ion channels are voltage-dependent proteins that can be activated by inducing membrane voltage changes by applying electric fields. The electrical stimulation instrument and methods of use, referred to as E-VIPR, are described in International Publication No. WO 2002/008748 A3 and C.-J. Huang et al. Characterization of voltage-gated sodium channel blockers by electrical stimulation and fluorescence detection of membrane potential, 24 Nature Biotech. 439-46 (2006), both of which are incorporated by reference in their entirety. The instrument comprises a microtiter plate handler, an optical system for exciting the coumarin dye while simultaneously recording the coumarin and oxonol emissions, a waveform generator, a current- or voltage-controlled amplifier, and parallel electrode pairs that are inserted into assay plate wells. Under integrated computer control, this instrument passes user-programmed electrical stimulus protocols to cells within the wells of the microtiter plate.
16-20 hours prior to running the assay on E-VIPR, HEK cells expressing a truncated form of human NaV 1.8 with full channel activity were seeded into microtiter 384-well plates, pre-coated with matrigel, at a density of 25,000 cells per well. 2.5-5% KIR2.1 Bacmam virus was added to the final cell suspension before seeding into cell plates. HEK cells were grown in Dulbecco's Modified Eagle's Medium (DMEM) supplemented with 10% FBS (Fetal Bovine Serum, qualified; Sigma #F4135), 1% NEAA (Non-Essential Amino Acids, Gibco #11140), 1% HEPES (Gibco #15630), 1% Pen-Strep (Penicillin-Streptomycin; Gibco #15140) and 5 μg/ml Blasticidin (Gibco #R210-01). Cells were expanded in vented cap cell culture flasks, with 90-95% humidity and 5% CO2.
Compound Loading Buffer (2× concentration): Na/TMA Cl Bath1 Buffer containing HS (omitted in experiments run in the absence of human serum (HS)) 50%, VABSC-1 1 mM, BSA 0.2 mg/ml (in Bath-1), KCl 9 mM, DMSO 0.75%.
• 1) To reach the final concentration in each well, 400 nL of each compound was pre-spotted (in neat DMSO) into polypropylene compound plates at 250× desired final concentration from an intermediate stock concentration of 0.075 mM, in an 11 point dose response, 3-fold dilution, resulting in a top dose of 300 nM final concentration in the cell plate. Vehicle control (neat DMSO), and positive control (an established NaV1.8 inhibitor, 25 μM final in assay in DMSO) were added manually to the outermost columns of each plate respectively. The compound plate was backfilled with 45 μL per well of Compound Loading Buffer resulting in a 250 fold dilution of compound following a 1:1 transfer of compound into the cell plate (see Step 6). Final DMSO concentration for all wells in the assay was 0.625% (0.75% DMSO was supplemented to the Compound Loading Buffer for a final DMSO concentration of 0.625%). This assay dilution protocol was adjusted to enable a higher dose range to be tested in the presence of HS or if the final assay volume was altered. • 2) Hexyl Dye Solution was prepared. • 3) Cell plates were prepared. On the day of the assay, the media was aspirated, and the cells were washed three times with 80 μL of Bath-1 buffer, maintaining 25 μL residual volume in each well. • 4) 25 μL per well of Hexyl Dye Solution was dispensed into the cell plates. The cells were incubated for 20 minutes at room temperature or ambient conditions in darkness. • 5) 45 μL per well of Compound Loading Buffer was dispensed into compound plates. • 6) The cell plates were washed three times with 80 μL per well of Bath-1 Buffer, leaving 25 µL of residual volume. Then 25 μL per well from compound plate was transferred to each cell plate. The mixture was incubated for 30 minutes at room temperature/ambient conditions. • 7) The cell plate containing compound was read on E-VIPR using the current-controlled amplifier to deliver stimulation wave pulses using a symmetrical biphasic waveform. […]
In general, IC50 refers to the concentration that gives 50% inhibition. Consider `COc1c(F)cccc1Oc1ccc(C(F)(F)F)cc1C(=O)Nc1ccnc(C(N)=O)c1` [Compound 12, 4-[[2-(3-fluoro-2-methoxy-phenoxy)-5-(trifluoromethyl)benzoyl]amino]pyridine-2-carboxamide], for which the IC50 was 2100 nM.

Take `NC(=O)c1cc(NC(=O)c2cc(C(F)(F)F)ccc2Oc2ccc(OC3CCCCC3)cc2)ccn1` [Compound 13, 4-[[2-[4-(cyclohexoxy)phenoxy]-5-(trifluoromethyl)benzoyl]amino]pyridine-2-carboxamide]: the 50% inhibitory concentration (IC50) is greater than 3000 nM.

Regarding `NC(=O)c1cc(NC(=O)c2cc(C(F)(F)F)ccc2Oc2cccc(C3CCCCC3)c2)ccn1` [Compound 14, 4-[[2-(3-cyclohexylphenoxy)-5-(trifluoromethyl)benzoyl]amino]pyridine-2-carboxamide], the IC50 was greater than 3000 nM.

As to `COc1ccc(Cl)cc1Oc1ccc(C(F)(F)F)cc1C(=O)Nc1ccnc(C(N)=O)c1` [Compound 15, 4-[[2-(5-chloro-2-methoxy-phenoxy)-5-(trifluoromethyl)benzoyl]amino]pyridine-2-carboxamide], the IC50 was greater than 3000 nM.

As to `COc1cc(Oc2ccc(C(F)(F)F)cc2C(=O)Nc2ccnc(C(N)=O)c2)ccc1F` [Compound 16, 4-[[2-(4-fluoro-3-methoxy-phenoxy)-5-(trifluoromethyl)benzoyl]amino]pyridine-2-carboxamide], the IC50 was greater than 3000 nM.

Turning to `NC(=O)c1cc(NC(=O)c2cc(C(F)(F)F)ccc2Oc2ccc(F)cc2F)ccn1` [Compound 17, 4-[[2-(2,4-difluorophenoxy)-5-(trifluoromethyl)benzoyl]amino]pyridine-2-carboxamide], the half-inhibitory concentration (IC50) was greater than 3000 nM.

For the molecule `CC(C)Oc1ccc(Oc2ccc(C(F)(F)F)c(F)c2C(=O)Nc2ccnc(C(N)=O)c2)c(F)c1F` [Compound 18, 4-[[6-(2,3-difluoro-4-isopropoxy-phenoxy)-2-fluoro-3-(trifluoromethyl)benzoyl]amino]pyridine-2-carboxamide], the half-inhibitory concentration (IC50) is 19 nM.

As for `CCOc1ccc(Oc2ccc(C(F)(F)F)c(F)c2C(=O)Nc2ccnc(C(N)=O)c2)c(F)c1F` [Compound 19, 4-[[6-(4-ethoxy-2,3-difluoro-phenoxy)-2-fluoro-3-(trifluoromethyl)benzoyl]amino]pyridine-2-carboxamide], the IC50 amounted to 57 nM.

Regarding `NC(=O)c1cc(NC(=O)c2c(Oc3ccc(F)cc3Cl)ccc(C(F)(F)F)c2F)ccn1` [Compound 20, 4-[[6-(2-chloro-4-fluoro-phenoxy)-2-fluoro-3-(trifluoromethyl)benzoyl]amino]pyridine-2-carboxamide], the half-maximal inhibitory concentration (IC50) was 48 nM.

As to `COc1cc(Oc2ccc(C(F)(F)F)c(F)c2C(=O)Nc2ccnc(C(N)=O)c2)ccc1F` [Compound 21, 4-[[2-fluoro-6-(4-fluoro-3-methoxy-phenoxy)-3-(trifluoromethyl)benzoyl]amino]pyridine-2-carboxamide], the half-maximal inhibitory concentration (IC50) worked out at 1000 nM.

`NC(=O)c1cc(NC(=O)c2c(Oc3ccccc3)ccc(C(F)(F)F)c2F)ccn1` [Compound 22, 4-[[2-fluoro-6-phenoxy-3-(trifluoromethyl)benzoyl]amino]pyridine-2-carboxamide]: the half-inhibitory concentration (IC50) worked out at 540 nM.

Regarding `CCOc1ccc(Oc2ccc(C(F)(F)F)c(F)c2C(=O)Nc2ccnc(C(N)=O)c2)cc1` [Compound 23, 4-[[6-(4-ethoxyphenoxy)-2-fluoro-3-(trifluoromethyl)benzoyl]amino]pyridine-2-carboxamide], the IC50 was 150 nM.

For the molecule `NC(=O)c1cc(NC(=O)c2c(Oc3ccc(F)c(F)c3)ccc(C(F)(F)F)c2F)ccn1` [Compound 24, 4-[[6-(3,4-difluorophenoxy)-2-fluoro-3-(trifluoromethyl)benzoyl]amino]pyridine-2-carboxamide], the IC50 is 200 nM.

`NC(=O)c1cc(NC(=O)c2c(Oc3ccc(F)c(Cl)c3)ccc(C(F)(F)F)c2F)ccn1` [Compound 25, 4-[[6-(3-chloro-4-fluoro-phenoxy)-2-fluoro-3-(trifluoromethyl)benzoyl]amino]pyridine-2-carboxamide]: the IC50 came out at 160 nM.

As to `Cc1nc(C(F)(F)F)ccc1Oc1ccc(C(F)(F)F)c(F)c1C(=O)Nc1ccnc(C(N)=O)c1` [Compound 26, 4-[[2-fluoro-6-[[2-methyl-6-(trifluoromethyl)-3-pyridyl]oxy]-3-(trifluoromethyl)benzoyl]amino]pyridine-2-carboxamide], the concentration for half-maximal inhibition (IC50) stood at 1300 nM.

As for `COc1ccc(Cl)cc1Oc1ccc(C(F)(F)F)c(F)c1C(=O)Nc1ccnc(C(N)=O)c1` [Compound 27, 4-[[6-(5-chloro-2-methoxy-phenoxy)-2-fluoro-3-(trifluoromethyl)benzoyl]amino]pyridine-2-carboxamide], the IC50 was determined as 170 nM.

Regarding `CC(C)Oc1ccc(Oc2ccc(C(F)(F)F)c(F)c2C(=O)Nc2ccnc(C(N)=O)c2)cc1F` [Compound 28, 4-[[2-fluoro-6-(3-fluoro-4-isopropoxy-phenoxy)-3-(trifluoromethyl)benzoyl]amino]pyridine-2-carboxamide], the IC50 came to 24 nM.

Take `CCOc1ccc(Oc2ccc(C(F)(F)F)c(F)c2C(=O)Nc2ccnc(C(N)=O)c2)cc1F` [Compound 29, 4-[[6-(4-ethoxy-3-fluoro-phenoxy)-2-fluoro-3-(trifluoromethyl)benzoyl]amino]pyridine-2-carboxamide]: the IC50 was 45 nM.

In the case of `NC(=O)c1cc(NC(=O)c2c(Oc3ccc(F)c4c3OCC4)ccc(C(F)(F)F)c2F)ccn1` [Compound 30, 4-[[2-fluoro-6-[(4-fluoro-2,3-dihydrobenzofuran-7-yl)oxy]-3-(trifluoromethyl)benzoyl]amino]pyridine-2-carboxamide], the concentration for half-maximal inhibition (IC50) is 43 nM.

Consider `COc1c(Oc2ccc(C(F)(F)F)c(F)c2C(=O)Nc2ccnc(C(N)=O)c2)ccc(F)c1F` [Compound 31, 4-[[6-(3,4-difluoro-2-methoxy-phenoxy)-2-fluoro-3-(trifluoromethyl)benzoyl]amino]pyridine-2-carboxamide], for which the IC50 turned out to be 9 nM.

For the molecule `Cc1cc(Oc2ccc(C(F)(F)F)c(F)c2C(=O)Nc2ccnc(C(N)=O)c2)ccc1F` [Compound 32, 4-[[2-fluoro-6-(4-fluoro-3-methyl-phenoxy)-3-(trifluoromethyl)benzoyl]amino]pyridine-2-carboxamide], the IC50 worked out at 200 nM.

Consider `CC(C)Oc1ccc(Oc2ccc(C(F)(F)F)c(F)c2C(=O)Nc2ccnc(C(N)=O)c2)cc1Cl` [Compound 33, 4-[[6-(3-chloro-4-isopropoxy-phenoxy)-2-fluoro-3-(trifluoromethyl)benzoyl]amino]pyridine-2-carboxamide], for which the IC50 was determined as 17 nM.

As to `COc1c(F)cccc1Oc1ccc(C(F)(F)F)c(F)c1C(=O)Nc1ccnc(C(N)=O)c1` [Compound 34, 4-[[2-fluoro-6-(3-fluoro-2-methoxy-phenoxy)-3-(trifluoromethyl)benzoyl]amino]pyridine-2-carboxamide], the IC50 was found to be 120 nM.

As to `NC(=O)c1cc(NC(=O)c2c(Oc3ccc(OC4CCCCC4)cc3)ccc(C(F)(F)F)c2F)ccn1` [Compound 35, 4-[[6-[4-(cyclohexoxy)phenoxy]-2-fluoro-3-(trifluoromethyl)benzoyl]amino]pyridine-2-carboxamide], the IC50 worked out at 510 nM.

For `CC(F)(F)c1cc(F)ccc1Oc1ccc(C(F)(F)F)c(F)c1C(=O)Nc1ccnc(C(N)=O)c1` [Compound 36, 4-[[6-[2-(1,1-difluoroethyl)-4-fluoro-phenoxy]-2-fluoro-3-(trifluoromethyl)benzoyl]amino]pyridine-2-carboxamide], the IC50 amounted to 180 nM.
